Data taken from patent publication US20130336940A1, “MODIFIED PIG ISLETS FOR DIABETES TREATMENT” (UNIVERSITE CATHOLIQUE DE LOUVAIN, priority 2011, published 2013).

Key:
[1] = system: isolated pig islets; experiment: In vitro islet functionality (24 hr incubation at G5, G15, G15+Fsk; insulin/glucagon RIA); type: cell-based
Description: The following steps were performed with the samples kept on ice. […] The samples were then sonicated 4×20 seconds (Sonifier B 12 [Branson Sonic Power Company, Danbury, Conn., USA]) and centrifugated 10 minutes at 4° C. at 1500 rpm. The first supernatant formed was removed and kept at −20° C. […] The samples were then kept at −20° C. overnight. After a step of centrifugation 10 minutes at 4° C. at 1500 rpm, the second supernatant was removed and kept at −20° C. […] The three supernatants were then pooled and constituted the pancreas extract. Human insulin specific RIA KIT and Glucagon RIA KIT (Millipore, Billerica, Mass., USA) were used for the determination of the hormonal content in human/pig pancreatic extractions as well as in isolated islets (see below). The content of insulin and glucagon in the extracts was performed following the instructions of the manufacturer. […] After incubation overnight at room temperature, 1 mL of precipitating reagent were added, followed by incubation 20 minutes at 4° C. The samples were then centrifuged 20 minutes at 2000-3000×g at 4° C.
Three replicates per concentration were performed. Media were thereafter recovered for insulin and glucagon quantification and islets were transferred in acid-ethanol for hormones extraction and quantification by radioimmuno-assay (see above).

[2] = system: islets from wild-type pigs; experiment: Insulin release of wild-type pig islets with exogenous GLP-1; type: cell-based
Description: After isolation from wild-type pigs, islets were incubated overnight at 37° C., 5% CO2/95% O2 in RMPI medium containing 10% heat-inactivated FCS, 100 IU/ml penicillin, 100 μg/ml streptomycin and 5 mmol/l glucose. The function of islets in different culture conditions was assessed by 2 or 24 hr incubation of 200 islets in 1.5 ml buffer containing (i) 1 mmol/l glucose, (ii) 15 mmol/l glucose, (iii) 15 mmol/l glucose+[…] Forskolin (fsk) (Calbiochem-Behring, San Diego, Calif.) (added from a 1 mmol/l stock solution in DMSO), (iv) 15 mmol/l glucose+1 μmol/l fsk, (v) 15 mmol/l glucose+5 nM GLP-1 (Sigma Aldrich), (vi) 15 mmol/l glucose+50 nM GLP-1, (vii) 15 mmol/l glucose+500 nM GLP-1, (viii) 15 mmol/l glucose+1 μmol/l fsk+50 nM GLP-1. Three replicates per concentration were performed. Media were thereafter recovered for insulin quantification and islets were transferred in acid-ethanol for hormones extraction and quantification by radioimmuno-assay (Human insulin RIA kit, Millipore, Billerica, Mass., USA).

[3] = system: adult pig islets; settings: cited from earlier work
[4] = 15 mmol/l glucose + 1 μmol/l Fsk, native and treated pig islets

## C=C[C@@]1(C)CC(=O)[C@]2(O)[C@@]3(C)[C@@H](O)CCC(C)(C)[C@@H]3[C@H](O)[C@H](OC(C)=O)[C@@]2(C)O1 [Fsk, Forskolin]
[1]; 1 μmol/l Fsk, native and treated islets
  increase in insulin secretion after G15+Fsk in comparison with G5 and G15: 2 to 4 fold
[1]; [4]
  effect on glucagon secretion or content: No effect
  effect on insulin content: No effect

## GLP-1: exogenous GLP-1 (Sigma Aldrich) added to wild-type pig islets
[2]; 500 nM GLP-1, glucose 15 mM, 24 hrs incubation
  increase of insulin release: 12%
[2]; GLP-1 at 500 nM
  stimulation index (ratio of insulin release at glucose 15 mM vs. 1 mM): significant increase
[2]; GLP-1 at 50-500 nM, glucose 15 mM, 2 hrs incubation
  increase of insulin release in comparison to glucose 15 mM alone: 10%

## glucagon: peptide hormone added to adult pig islets in cited literature studies
[3]; acute exposure to 1 or 10 μM glucagon
  increase of stimulation index: 30%
[3]; islets cultured in the presence of 10 μM glucagon
  basal insulin release in comparison with control situation: 2 fold
